From patent US10392630B2, “Plants having increased tolerance to herbicides” (BASF AGRO B.V., priority 2013, dated 2019)
“And” between values parts separate entries of the source, which are not always exact repeats. Identical values can stand only once.

Experiments:
[1] = tested on: Alopecurus wildtype PPO (ALOMY), PPO herbicide sensitive PPO2, SEQ ID NO 2; assay: PPO enzyme assay, dose-response (fluorescence), wildtype Alopecurus PPO2; format: biochemical, Alopecurus myosuroides; conditions: Table 3a; PPO herbicide sensitive PPO2, SEQ ID NO 2, ALOMY
[2] = target: Alopecurus mutant PPO (ALOMY), SEQ ID NO 2 with amino acid substitution; assay: PPO enzyme assay, dose-response (fluorescence), mutated Alopecurus PPO2; format: biochemical, Alopecurus myosuroides
[3] = tested on: transgenic Arabidopsis thaliana plants; assay: Growth inhibition of transgenic Arabidopsis in 48-well plates, tolerance factor (Table 5, FIG. 2); format: in vivo; conditions: growth inhibition seven to ten days after seeding
[4] = tested on: transgenic T0 corn events; assay: Herbicide injury of transgenic T0 corn events, greenhouse spray (Table 6a); format: in vivo, Zea mays; set-up: key: 0 is no injury relative to an unsprayed wild type check; 9 is completely dead; conditions: 7 days after treatment
[5] = tested on: transgenic soybean cv Jake cuttings; assay: Herbicide injury of transgenic soybean cuttings from T0 plants (Table 7, FIG. 4); format: in vivo, Glyceine max; conditions: V2 spray, 1 week after treatment

CC(C)N(C)S(=O)(=O)NC(=O)c1cc(-n2c(=O)cc(C(F)(F)F)n(C)c2=O)c(F)cc1Cl [saflufenacil]
IC50 [1]: 211 nM | IC50 [2]: > 10000 nM | TF (Tolerance Factor), relative tolerance rate (non-transgenic = 1.0) ([3]; transgenic Arabidopsis Am_PPO2_F438I): 3300 | TF (Tolerance Factor), relative tolerance rate (non-transgenic = 1.0) ([3]; transgenic Arabidopsis Am_PPO2_R137A): 1500 | TF (Tolerance Factor), relative tolerance rate (non-transgenic = 1.0) ([3]; transgenic Arabidopsis Am_PPO2_R137A_F438I): 950 | TF (Tolerance Factor), relative tolerance rate (non-transgenic = 1.0) ([3]; transgenic Arabidopsis Am_PPO2_R137A_F438L): 2300 | TF (Tolerance Factor), relative tolerance rate (non-transgenic = 1.0) ([3]; transgenic Arabidopsis Am_PPO2_R137A_F438M): 2500 | TF (Tolerance Factor), relative tolerance rate (non-transgenic = 1.0) ([3]; transgenic Arabidopsis Am_PPO2_R137A_F438V): 2500 | TF (Tolerance Factor), relative tolerance rate (non-transgenic = 1.0) ([3]; transgenic Arabidopsis Am_PPO2_R137I): 2140 | TF (Tolerance Factor), relative tolerance rate (non-transgenic = 1.0) ([3]; transgenic Arabidopsis Am_PPO2_R137L_F438I): 2700 | TF (Tolerance Factor), relative tolerance rate (non-transgenic = 1.0) ([3]; transgenic Arabidopsis Am_PPO2_R137L_F438L): 2700 | TF (Tolerance Factor), relative tolerance rate (non-transgenic = 1.0) ([3]; transgenic Arabidopsis Am_PPO2_R137L_F438M): 3100 | TF (Tolerance Factor), relative tolerance rate (non-transgenic = 1.0) ([3]; transgenic Arabidopsis Am_PPO2_R137M_F438I): 1740 | TF (Tolerance Factor), relative tolerance rate (non-transgenic = 1.0) ([3]; transgenic Arabidopsis Am_PPO2_R137M_F438L): 1340 | TF (Tolerance Factor), relative tolerance rate (non-transgenic = 1.0) ([3]; transgenic Arabidopsis Am_PPO2_R137M_F438M): 1700 | TF (Tolerance Factor), relative tolerance rate (non-transgenic = 1.0) ([3]; transgenic Arabidopsis Am_PPO2_R137M_F438V): 1900 | Herbicide injury, 0 to 9 rating scale ([4]; T0 corn events tp-SorbiPPO2::AlomyPPO2_F431V, 75 g ai/ha + 1% (v/v) MSO at V2 stage): 3 | Herbicide injury, 0 to 9 rating scale ([4]; T0 corn events tp-SorbiPPO2::AlomyPPO2_R130A_F431V, 75 g ai/ha + 1% (v/v) MSO at V2 stage): 7 | Herbicide injury, 0 to 9 rating scale ([4]; T0 corn events tp-ZeamaPPO2::AlomyPPO2_F431V, 75 g ai/ha + 1% (v/v) MSO at V2 stage): 0 | Herbicide injury, 0 to 9 rating scale ([4]; T0 corn events tp-ZeamaPPO2::AlomyPPO2_R130A, 75 g ai/ha + 1% (v/v) MSO at V2 stage): 0 | Herbicide injury, 0 to 9 rating scale ([4]; untransformed wild type corn, 50 g ai/ha + 1% (v/v) MSO at V2 stage): 7 | Herbicide injury, 0 to 9 rating scale ([4]; untransformed wild type corn, 75 g ai/ha + 1% (v/v) MSO at V2 stage): 8 | Herbicide injury, 0 to 9 rating scale ([4]; untransformed wild type corn, 100 g ai/ha + 1% (v/v) MSO at V2 stage): 8 | Herbicide injury ([5]; AlomyPPO1_R138A T0 cuttings, BAS 800H 25 g ai/ha): 6 and 9 | Herbicide injury ([5]; AlomyPPO1_R138A_Y420M T0 cuttings, BAS 800H 25 g ai/ha): 0 | Herbicide injury ([5]; AlomyPPO1_R138A_Y420M T0 cuttings, BAS 800H 50 g ai/ha): 3 | Herbicide injury ([5]; AlomyPPO1_R138A_Y420M T0 cuttings, BAS 800H 100 g ai/ha): 3 | Herbicide injury ([5]; AlomyPPO1_R138L T0 cuttings, BAS 800H 25 g ai/ha): 8 and 7 and 6 | Herbicide injury ([5]; AlomyPPO1_R138L T0 cuttings, BAS 800H 50 g ai/ha): 8 and 9 and 6 and 7 | Herbicide injury ([5]; AlomyPPO1_R138L T0 cuttings, BAS 800H 100 g ai/ha): 8 and 9 | Herbicide injury ([5]; AlomyPPO1_Y420M T0 cuttings, BAS 800H 50 g ai/ha): 5 and 4 and 8 | Herbicide injury ([5]; AlomyPPO1_Y420M T0 cuttings, BAS 800H 100 g ai/ha): 5 and 4 and 8 | Herbicide injury ([5]; AlomyPPO2_R137A T0 cuttings, BAS 800H 25 g ai/ha): 3 | Herbicide injury ([5]; AlomyPPO2_R137A T0 cuttings, BAS 800H 50 g ai/ha): 0 | Herbicide injury ([5]; AlomyPPO2_R137A T0 cuttings, BAS 800H 100 g ai/ha): 2 | Herbicide injury ([5]; AlomyPPO2_R137A_F438L T0 cuttings, BAS 800H 200 g ai/ha): 6 and 9 | Herbicide injury ([5]; AlomyPPO2_R137A_F438V T0 cuttings, BAS 800H 200 g ai/ha): 4 and 3 and 6 | Herbicide injury ([5]; AlomyPPO2_R137L_F438I T0 cuttings, BAS 800H 100 g ai/ha): 9 | Herbicide injury ([5]; AlomyPPO2_R137L_F438I T0 cuttings, BAS 800H 200 g ai/ha): 9 | Herbicide injury ([5]; AlomyPPO2_R137M_F438L T0 cuttings, BAS 800H 50 g ai/ha): 4 | Herbicide injury ([5]; AlomyPPO2_R137M_F438L T0 cuttings, BAS 800H 100 g ai/ha): 6 and 3 | Herbicide injury ([5]; AlomyPPO2_R137M_F438M T0 cuttings, BAS 800H 50 g ai/ha): 9 | Herbicide injury ([5]; Wild type cuttings, BAS 800H 25 g ai/ha): 9 | Herbicide injury ([5]; Wild type cuttings, BAS 800H 50 g ai/ha): 9 | Herbicide injury ([5]; Wild type cuttings, BAS 800H 100 g ai/ha): 9 | Herbicide injury ([5]; Wild type cuttings, BAS 800H 200 g ai/ha): 9
